Source: US11135309B2, “Poly(vinyl alcohol) nanocarriers” (THE REGENTS OF THE UNIVERSITY OF CALIFORNIA, priority 2015, dated 2021)

Tests used:
[1] = cumulative BTZ release in PBS medium; format: physicochemical; details: PBS pH 7.4, within the first 3 h
[2] = blood cell count after the last dosage in the therapeutic study; format: in vivo, mice
Protocol: (§1) Tumor bearing mice (n=6-8) were intravenously administered PBS; Velcade® (0.8 mg/kg); BTZ-PVA (0.8, 1.2 mg/kg); DOX (4 mg/kg); DOX-DCMs (4 mg/kg); BTZ 0.8 mg/kg followed by DOX 4 mg/kg 24 h later; or BTZ-PVA 0.8 mg/kg followed by DOX-DCMs 24 h later every four days for a total of 6 doses. Data represent mean±SEM.

[3] = serum chemistry (hepatic and renal function panel) in the therapeutic study; format: in vivo, mice; details: day 7 after the last dosage
Protocol: as §1

[4] = in vitro DOX release from PVA-LA NPs by dialysis; format: physicochemical; details: PBS, within 1 h
Protocol: Drug release study. DOX-loaded Cr-PVA-LA NPs solution was prepared to determine the in vitro drug release profile. The initial DOX concentration was 1.0 mg/mL, Aliquots of the DOX-loaded Cr-PVA-LA NPs solution were injected into dialysis cartridges with 3.5 kDa MWCO. The cartridges were dialyzed against 100 volume times PBS solution at 37° C. and rotator rate was set to 100 rpm. […] Values were reported as the means for each triplicate samples.
Loading and Triggered Release of DOX. […] The accumulated release results shown in FIG. 14 represent the total amount of DOX released from different sample. […] More than 50% of DOX were release within 1 h. […] It should be further noted that no burst release was observed even in the presence of NAC. The unique core-shell structure contributes to the constant release rate. This biodegradable PVA-LA NPs is a highly promising approach to controlled drug release.

[5] = system: subcutaneous MDA-MB-231 breast cancer xenografts; test: in vivo therapeutic study, breast cancer xenograft; parameters: species or system nude mice; details: 5 mg/kg intravenous, every four day, 6 doses
Protocol: In vivo therapeutic study. Subcutaneous MDA-MB-231 breast cancer xenografts were implanted into nude mice as described above. […] On day 0, these mice were randomly divided into three groups, with five mice in each group. […] Tumor volume was calculated by the formula (L×W^2)/2, where L is the longest and W is the shortest in tumor diameters(mm). Anti-tumor efficacy in breast cancer xenograft mouse mode The anti-tumor effects of DOX-PVA-LA NPs after intravenous injection were evaluated in subcutaneous MDA-MB-231 tumor bearing mice.

[6] = in vitro DOX release from PPNs by dialysis; format: physicochemical; details: PBS 37° C., within the first 5 hrs
Protocol: In vitro drug release profiles were carried out using the dialysis method. Aliquots of DOX-loaded PPNs solution were injected into a dialysis cartridge with a molecular weight cutoff of 3.5 kDa. The whole dialysis process was carried out at 37° C. with swirling at 70 rpm in the presence of 10 g/L activated charcoal in 1 L PBS buffer. The concentration of DOX remained in the dialysis cartridge at various time points was determined by absorbance measurement.

[7] = system: SKOV-3 ovarian cancer cells; test: cellular uptake (flow cytometry, confocal microscopy); format: cell-based
Protocol: The uptake profiles of DOX-loaded PPNs in SKOV-3 ovarian cancer cells were qualitatively observed by confocal microscopy. SKOV-3 cells were seeded in an 8-well slide. […] Then the cells were washed thrice with PBS buffer, fixed with 4% paraformaldehyde for 15 min. The nuclei were stained with DAPI. The slides were mounted with coverslips and observed by confocal microscopy.
The cellular uptake efficiency of PPNs in SKOV3 ovarian cancer cells was quantified with flow cytometry at different incubation time points (FIG. 19a). […] Additionally, a marked increase in porphyrin fluorescence from PPNs was visualized in the cytoplasm at 6 hrs, compared to that at 30 min after incubation.

[8] = system: subcutaneous SKOV-3 tumor; test: phototherapy and tumor response; format: in vivo, mice
Protocol: Phototherapy and tumor response. Subcutaneous SKOV-3 tumor-bearing mice were used for in vivo therapeutic study when tumor volumes reached 80-120 mm^3 (designate as Day 0). The therapeutic efficacy and toxicity profiles of different PPNs formulations were evaluated. On day 0, all mice were randomly divided into seven groups (n=6). […] The DOX was given at the dose of 2.5 mg/kg, and PPNs was given at the dose of 2 mg/kg, calculated on the porphyrin content. The treatment was given every 5 days on day 0, 5, 10 and 15 for a total 4 doses. […] Tumor size and body weight were measured twice a week. Tumor volume was calculated using the equation (L×W^2)/2, where L is the longest and W is shortest in tumor diameters (mm). For humane reasons, mice were sacrificed when tumor volume reached 1000 mm^3, which was considered as the end point of survival data.

[9] = in vivo toxicity evaluation; parameters: species or system mice; details: 5 days after the last dose
Protocol: Phototherapy and tumor response. Subcutaneous SKOV-3 tumor-bearing mice were used for in vivo therapeutic study when tumor volumes reached 80-120 mm^3 (designate as Day 0). The therapeutic efficacy and toxicity profiles of different PPNs formulations were evaluated. On day 0, all mice were randomly divided into seven groups (n=6). Mice were intravenously administered with PBS, blank PPNs, DOX·HCl and PPNs-DOX. The DOX was given at the dose of 2.5 mg/kg, and PPNs was given at the dose of 2 mg/kg, calculated on the porphyrin content. The treatment was given every 5 days on day 0, 5, 10 and 15 for a total 4 doses. […] Tumor size and body weight were measured twice a week. Tumor volume was calculated using the equation (L×W^2)/2, where L is the longest and W is shortest in tumor diameters (mm). For humane reasons, mice were sacrificed when tumor volume reached 1000 mm^3, which was considered as the end point of survival data. At day 5 after the last dosage, blood samples were collected from each group to test blood cell counts and serum chemistry.
In vivo toxicity evaluation. The potential toxicity of PPNs and the related formulations was assessed in all treated mice. The body weight change, blood cell counts and serum chemistry including renal and hepatic function panels were monitored. […]

## CC(C)C[C@H](NC(=O)[C@H](Cc1ccccc1)NC(=O)c1cnccn1)B(O)O [BTZ, [(1R)-3-methyl-1-({(2S)-3-phenyl-2-[(pyrazin-2-ylcarbonyl)amino]propanoyl}amino)butyl] boronic acid]
[1]
  BTZ released: about 80%
[2]; 0.8 mg/kg
  Hemoglobin: 14.6 ± 0.6 g/dL
  Neutrophil cells: 0.5 ± 0.4 K/μl
  Platelets: 1424.3 ± 146.2 K/μL
  RBC: 9.2 ± 0.5 M/μl
  WBC: 5.6 ± 1.3 K/μl
[3]; 0.8 mg/kg
  ALT: 28.3 ± 3.3 U/L
  AST: 117.1 ± 26.4 U/L
  BUN: 16.3 ± 2.1 mg/dL
  Creatinine: 0.2 ± 0.1 mg/dL
  Total Bilirubin: 0.1 ± 0.0 mg/dL

## COc1cccc2c1C(=O)c1c(O)c3c(c(O)c1C2=O)C[C@@](O)(C(=O)CO)C[C@@H]3O[C@H]1C[C@H](N)[C@H](O)[C@H](C)O1 [DOX, doxorubicin]
[2]; 4 mg/kg
  Hemoglobin: 13.6 ± 0.9 g/dL
  Neutrophil cells: 0.5 ± 0.2 K/μl
  Platelets: 1618.2 ± 190.5 K/μL
  RBC: 8.3 ± 0.5 M/μl
  WBC: 5.8 ± 1.0 K/μl
[3]; 4 mg/kg
  ALT: 42.6 ± 8.6 U/L
  AST: 167.7 ± 23.4 U/L
  BUN: 18.0 ± 2.6 mg/dL
  Creatinine: 0.2 ± 0.0 mg/dL
  Total Bilirubin: 0.1 ± 0.0 mg/dL
[4]
  DOX released: More than 50%
[5]
  anti-tumor activity compared with PBS control: significant anti-tumor activity
[6]
  DOX released: 90%
[7]; 30 min incubation
  intracellular localization of DOX fluorescence: could be observed in the nuclei
[7]; 6 hrs incubation
  intracellular localization of DOX fluorescence: completely transported into the nuclei
[8]; DOX 2.5 mg/kg iv days 0, 5, 10, 15, without light
  tumor growth compared to PBS control: did not exhibit obvious antitumor effect
[8]; without light
  survival compared to PBS control: no obvious prolonged survival rate
[9]
  white blood cell counts: certain decrease
